Laboratory results as given in patent US8158764B2 (priority 2006, dated 2012).
Values joined by “and” are separate entries in the source; they are usually repeats but may differ in a detail not shown here. Identical values can stand only once.

Experiments:
[1] = Tail flick test (analgesic activity); assay type: in vivo, mouse; set-up: AUC, tail flick test: unit not given here; details: for ED50 / Max Effect (time), tail flick test: mouse, intravenous; for duration of the analgesic activity compared with morphine: in words, tail flick and hot plate tests
Description: The “Tail flick” test (test of D'Amour & Smith, 1941, Pharmacol Exp Ther; 72: 74-79) consists in placing the tail of a mouse, after administration of a product, in front of an infrared source in order to produce a nociceptive stimulus (a surface temperature of 55° C.). The reaction time (RT) of the mouse (latency between the start of the light beam and the moment the mouse withdraws its tail) was measured in duplicate at 8 times spread from […] after administration of the product. A maximal 10 second-period has been chosen as the maximal reaction time in order to avoid any tissue damage for the animal.
Products were intravenously-administered at doses comprised between 0.5 and 8 mg/kg (8 mice per group).
Two measures of reaction time were realized before administration of the product for each mouse so as to establish a base line.
The MPE % represents the percentage of possible maximal effect and corresponds to the following formula: […]

human μ receptors = target: T1, human μ receptors (Homo sapiens, UniProt P35372); experiment: biochemical; assay type: binding
T1 construct: expressed in transfected cells; host or cells: HEK-293

κ receptors = target: T2, κ receptors (Cavia porcellus, UniProt P41144); experiment: Affinity to κ receptors, [3H]U-69593 binding on cerebellum homogenates; set-up: species or system guinea-pigs; details: for Ki: guinea-pig cerebellum, 0.7 nM [3H]U-69593, read-out: Ki (nM) κ Receptor
T2 construct: homogenates of guinea-pigs cerebellum (250 μg of protein); from tissue; host or cells: guinea-pig cerebellum
Description: (§1) The non specific binding was determined in the presence of 10 μM of naltrexone. After incubation, samples were rapidly filtered through glass fibers (GF/B, Packard), previously incubated with 0.3% of polyethyleneimine and rinsed several times with 50 mM of cold Tris-HCl using a “96-sample cell harvester” (Unifilter, Packard). Filters were afterwards dried and the radioactivity was counted.

[2] = Activity and toxicity of the 3-methoxy derivative (test not specified); details: in words
[3] = Hot plate test (analgesic activity); assay type: in vivo; details: mouse, intravenous
κ receptor [4] = target: T3, κ receptor (Oryctolagus cuniculus, UniProt G1SJ19); experiment: Antagonist activity on κ receptor, electrically stimulated rabbit vas deferens; assay type: biochemical
T3 construct: using prostatic segments of rabbits' deferens vas; from tissue; host or cells: rabbit vas deferens (prostatic segments)
Description: The agonist/antagonist activity on K receptors of compounds according to the invention was estimated by using prostatic segments of rabbits' deferens vas, stretched and stimulated by an electric current of 0.1 Hz during 1 msec.
In order to test an antagonist activity, a response control (peak of contraction of the tissue) was obtained by exposing tissues to a high concentration (0.1 μM) in specific agonist U-69593.
Tissues were then exposed to growing concentrations of the compound according to the invention or to the specific agonist. The various concentrations were cumulated and each concentration was maintained in contact with the tissue until a stable response was obtained or up to […].
An antagonist response was observed when the amplitude of peaks of contractions provoked by electric stimulation was similar to the one observed with the nor-BNI.
The measured parameter was a maximal change of amplitude of the peaks of contractions provoked by electric stimulation with various concentrations of the compound.

δ receptors = target: T4, δ receptors (Homo sapiens, UniProt P41143); experiment: Affinity to δ receptors, [3H]DADLE binding on cell membrane homogenates (CHO cells)
T4 construct: expressed in transfected cells; host or cells: CHO
Description: as §1

κ receptor [5] = target: T3, κ receptor; assay type: biochemical, rabbit
[6] = Intestinal transit in mice

T1 sequence (P35372 whole entry): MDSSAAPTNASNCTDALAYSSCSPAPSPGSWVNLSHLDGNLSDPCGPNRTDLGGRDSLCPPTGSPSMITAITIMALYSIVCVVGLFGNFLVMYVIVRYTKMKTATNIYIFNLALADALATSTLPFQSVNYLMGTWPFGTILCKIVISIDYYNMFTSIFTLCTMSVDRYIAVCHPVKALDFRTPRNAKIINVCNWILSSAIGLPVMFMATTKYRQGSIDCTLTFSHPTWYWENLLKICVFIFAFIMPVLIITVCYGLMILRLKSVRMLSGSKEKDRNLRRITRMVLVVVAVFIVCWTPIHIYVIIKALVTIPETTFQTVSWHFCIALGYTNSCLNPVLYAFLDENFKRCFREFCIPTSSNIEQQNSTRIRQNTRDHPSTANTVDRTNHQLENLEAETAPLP
T3 sequence (G1SJ19 1-383): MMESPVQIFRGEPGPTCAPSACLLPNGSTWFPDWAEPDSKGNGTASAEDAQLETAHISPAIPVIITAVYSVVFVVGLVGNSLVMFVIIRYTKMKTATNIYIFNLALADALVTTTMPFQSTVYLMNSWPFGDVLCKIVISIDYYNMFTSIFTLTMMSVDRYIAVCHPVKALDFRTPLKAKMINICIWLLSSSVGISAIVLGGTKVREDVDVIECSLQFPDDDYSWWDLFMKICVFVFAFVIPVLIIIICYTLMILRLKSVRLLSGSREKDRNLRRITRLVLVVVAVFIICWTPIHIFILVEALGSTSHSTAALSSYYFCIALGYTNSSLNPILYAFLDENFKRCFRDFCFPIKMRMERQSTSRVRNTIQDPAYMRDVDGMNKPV
T2 sequence (P41144 whole entry): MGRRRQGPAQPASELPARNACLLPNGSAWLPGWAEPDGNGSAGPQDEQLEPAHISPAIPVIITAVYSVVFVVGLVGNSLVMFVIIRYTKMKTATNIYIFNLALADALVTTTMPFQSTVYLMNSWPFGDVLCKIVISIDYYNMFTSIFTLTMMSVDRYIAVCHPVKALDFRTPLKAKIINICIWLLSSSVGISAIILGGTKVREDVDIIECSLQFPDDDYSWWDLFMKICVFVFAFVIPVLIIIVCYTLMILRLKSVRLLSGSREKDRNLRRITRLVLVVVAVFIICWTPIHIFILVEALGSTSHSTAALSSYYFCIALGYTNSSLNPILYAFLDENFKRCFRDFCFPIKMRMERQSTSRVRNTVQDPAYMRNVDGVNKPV
T4 sequence (P41143 whole entry): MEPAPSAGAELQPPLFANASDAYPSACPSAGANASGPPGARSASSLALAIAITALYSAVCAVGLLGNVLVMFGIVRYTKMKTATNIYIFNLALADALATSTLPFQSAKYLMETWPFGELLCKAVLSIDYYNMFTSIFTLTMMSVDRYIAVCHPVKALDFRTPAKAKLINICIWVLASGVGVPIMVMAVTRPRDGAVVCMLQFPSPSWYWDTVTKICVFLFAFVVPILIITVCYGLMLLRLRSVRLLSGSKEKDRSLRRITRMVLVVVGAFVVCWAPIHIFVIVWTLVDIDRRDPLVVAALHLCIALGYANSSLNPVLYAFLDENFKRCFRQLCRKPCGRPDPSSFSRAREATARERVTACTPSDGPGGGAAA

| Compound | AUC, tail flick test ([1]; dose 2 mg/kg iv) | AUC, tail flick test ([1]; dose 4 mg/kg iv) | AUC, tail flick test ([1]; dose 8 mg/kg iv) | ED50 [1] | Max Effect (time), tail flick test [1] | Ki (human μ receptors) | Ki (κ receptors) | AUC, tail flick test ([1]; dose 1 mg/kg iv) | duration of the analgesic activity compared with morphine [1] | ED50 [3] | Effet max (time), hot plate test [3] | other results |
| --- | --- | --- | --- | --- | --- | --- | --- | --- | --- | --- | --- | --- |
| CCOc1ccc2c3c1O[C@H]1[C@@H](O[C@@H]4O[C@H](C(=O)NCCSSCCC(=O)Nc5cccc6c7c([nH]c56)[C@@H]5Oc6c(O)ccc8c6[C@@]56CCN(CC5CC5)[C@H](C8)[C@]6(O)C7)[C@@H](O)[C@H](O)[C@H]4O)C=CC4[C@@H](C2)N(C)CC[C@@]341 (some centres unmarked) [M3Et-6G-cya-3MP-NTI] | 2576 | 4410 | 5733 | 2.9 mg/kg | 120 min |  |  |  |  |  |  |  |
| COc1ccc2c3c1OC1C(OC4OC(C(=O)NCCS)C(O)C(O)C4O)C=CC4C(C2)N(C)CCC341 (centres unmarked) [Compound C6G-cya] |  |  |  |  |  | 0.011 µM | 100 nM |  |  |  |  | activity of the 3-methoxy substituted compound [2]: inactive; toxicity of the 3-methoxy substituted compound [2]: toxic |
| CCOc1ccc2c3c1OC1C(OC4OC(C(=O)NCCS)C(O)C(O)C4O)C=CC4C(C2)N(C)CCC341 (centres unmarked) [Compound M3Et-6G-cya] | 2538.93 | 5012.90 | 6059.22 | 2.04 mg/kg | 120 min | 0.013 µM | 220 nM | 1047.85 | much longer | 2.75 mg/kg | 120 min |  |
| Oc1ccc2c3c1O[C@H]1c4[nH]c5c(c4C[C@@]4(O)[C@@H](C2)N(CC2CC2)CC[C@]314)C[C@@]1(O)[C@H]2Cc3ccc(O)c4c3[C@@]1(CCN2CC1CC1)[C@H]5O4 [nor-BNI, nor-binaltorphimine, reference compound] |  |  |  |  |  |  |  |  |  |  |  | antagonist activity: response in % of the response control at U-69593 (0.1 μM) (κ receptor [4]; compound 0.1 nM): 80%; antagonist activity: response in % of the response control at U-69593 (0.1 μM) (κ receptor [4]; compound 0.3 nM): 55%; antagonist activity: response in % of the response control at U-69593 (0.1 μM) (κ receptor [4]; compound 1 nM): −1% |
| CCOc1ccc2c3c1OC1C(OC4OC(C(=O)NCCSSCCNC(=O)C5OC(OC6C=CC7C8Cc9ccc(OCC)c%10c9C7(CCN8C)C6O%10)C(O)C(O)C5O)C(O)C(O)C4O)C=CC4C(C2)N(C)CCC341 (centres unmarked) [M3Et-6G-cya-cya-M3Et-6G] | 4824.51 | 5915.16 | 5817.46 | 1.32 mg/kg | 120 min | 0.014 µM | 25 nM | 1233.75 | much longer | 1.35 mg/kg | 120 min | Ki (δ receptors): > 1 µM; improvement of affinity for κ receptors (factor) (κ receptors; compared with morphine): 6; agonist activity: response in % of the response control at U-69593 (κ receptor [5]): 0% and −4% and −3%; antagonist activity: response in % of the response control at U-69593 (0.1 μM) (κ receptor [4]; compound 0.03 μM): 100%; antagonist activity: response in % of the response control at U-69593 (0.1 μM) (κ receptor [4]; compound 0.3 μM): 100%; antagonist activity: response in % of the response control at U-69593 (0.1 μM) (κ receptor [4]; compound 3 μM): 92%; antagonist activity: response in % of the response control at U-69593 (0.1 μM) (κ receptor [4]; compound 30 μM): 71%; agonist/antagonist behaviour on κ receptor (κ receptor [4]; in words): behaves as a κ receptor antagonist; AUC, tail flick test ([1]; dose 0.5 mg/kg iv): 617.79; duration of maximum analgesic activity ([1]; injected at two-fold ED50, no supplementary dose): at least 6 hours; transit inhibition ([6]; at the maximal analgesic effect after iv injection at ED50): about 90%; analgesia when transit speed becomes normal ([6]; between 10 and 12 hours after injection): 50%; effect on transit while analgesic activity is maintained at maximum ([6]; in words): transit only slows down |
